Reference: patent US20250270217A1, “IMIDAZ0[1,2-A]PYRIMIDINE-5(1 H)-ONES HAVING A COVALENT WARHEAD AT THE 3-POSITION AS WRN INHIBITORS” (Incyte Corporation, priority 2023, published 2025)
Counter-ions that a name gives are not always drawn.

Legend:
WRN [1] = target: T1, WRN (Homo sapiens, UniProt Q14191); experiment: WRN Helicase activity assay (fluorescence DNA unwinding); assay type: biochemical; details: 1-hr pre-incubation with enzyme; 100 μM ATP, 25 nM forked dsDNA, 1 nM WRN; geometric mean of at least 2 replicates
T1 construct: A His-tagged construct of WRN (AA S2-S1235) was produced and used for the ATPase assay; His; made in house; host or cells: Sf9 insect cells (baculovirus)
T1 sequence (Q14191 2-1235): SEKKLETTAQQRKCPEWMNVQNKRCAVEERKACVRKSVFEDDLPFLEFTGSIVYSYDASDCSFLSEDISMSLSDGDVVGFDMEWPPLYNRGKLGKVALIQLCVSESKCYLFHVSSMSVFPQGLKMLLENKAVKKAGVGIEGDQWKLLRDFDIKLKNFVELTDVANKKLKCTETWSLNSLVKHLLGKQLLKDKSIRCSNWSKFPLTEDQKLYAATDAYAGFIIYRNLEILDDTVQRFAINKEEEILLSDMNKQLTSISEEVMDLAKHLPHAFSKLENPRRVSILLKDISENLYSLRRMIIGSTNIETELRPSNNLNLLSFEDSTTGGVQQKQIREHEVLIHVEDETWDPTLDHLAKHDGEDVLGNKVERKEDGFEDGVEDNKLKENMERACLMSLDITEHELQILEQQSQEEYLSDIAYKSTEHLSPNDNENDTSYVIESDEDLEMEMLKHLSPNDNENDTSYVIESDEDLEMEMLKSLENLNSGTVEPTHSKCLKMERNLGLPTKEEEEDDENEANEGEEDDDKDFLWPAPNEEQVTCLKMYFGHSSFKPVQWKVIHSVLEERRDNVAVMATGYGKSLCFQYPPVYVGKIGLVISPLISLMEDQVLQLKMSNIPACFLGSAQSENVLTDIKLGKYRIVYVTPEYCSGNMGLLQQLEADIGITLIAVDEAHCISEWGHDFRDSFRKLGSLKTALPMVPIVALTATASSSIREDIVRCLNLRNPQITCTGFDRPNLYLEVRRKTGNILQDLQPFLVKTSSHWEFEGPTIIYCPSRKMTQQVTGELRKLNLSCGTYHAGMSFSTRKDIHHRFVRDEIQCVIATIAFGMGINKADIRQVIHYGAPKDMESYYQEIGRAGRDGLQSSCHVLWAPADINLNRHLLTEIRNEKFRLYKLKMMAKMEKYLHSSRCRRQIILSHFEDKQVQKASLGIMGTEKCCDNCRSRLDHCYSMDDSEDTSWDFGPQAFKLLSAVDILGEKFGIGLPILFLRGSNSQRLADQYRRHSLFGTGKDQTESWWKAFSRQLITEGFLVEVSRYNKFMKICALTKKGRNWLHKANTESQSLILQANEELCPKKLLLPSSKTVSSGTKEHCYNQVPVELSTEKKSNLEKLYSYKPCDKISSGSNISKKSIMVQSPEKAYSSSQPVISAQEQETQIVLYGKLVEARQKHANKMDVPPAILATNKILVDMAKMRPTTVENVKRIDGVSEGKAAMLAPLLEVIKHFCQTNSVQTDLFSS
Procedure: Compounds of the examples were tested for WRN helicase activity. DNA encoding the target protein, 6×HIS-TEV-WRN-517-945, was produced, cloned and transfected as detailed in Example D. To determine the inhibitory properties of the compounds, a 384 wells plate-based Helicase assay was set up to measure the extent of DNA unwinding (Helicase) activity of WRN. The WRN Helicase assay was designed to measure increase in fluorescence signal using a fluorescence based, donor-quencher paired forked dsDNA oligomer substrate (custom synthesis from Sigma-Aldrich) prepared by annealing equal amounts of oligo GPat-1 ([BHQ2][…]) and oligo GPat-2 ([…][TAM]). Continuous measurement of fluorescent signal was used to optimize the buffer conditions, concentration of enzyme (WRN), concentration of substrates (ATP & dsDNA), and the linearity of the Helicase reaction. All solutions were prepared in the following assay buffer: 50 mM Tris-HCl, pH-7.5, 2 mM MgCl2, 50 mM NaCl, 1 mM EGTA, 0.01% P-20, 0.05% BSA, and 2 mM DTT prepared with nuclease free water.
A serial dilution (1:3 scheme) of the compounds was prepared in neat DMSO and 100 nL of the compounds was dispensed in the Greiner black low volume (Greiner #784076) 384 wells assay plate. An 1-hr pre-incubation of the compounds with enzyme was included. A His-tagged construct of WRN (AA S2-S1235) was produced and used for the ATPase assay. Maximum inhibition control wells were set up with the addition of only assay buffer, and no inhibition control wells were set up with neat DMSO without test compounds. The reaction was initiated by addition of 5 μL substrate mix (200 μM ultrapure ATP, and 50 nM dsDNA prepared in assay buffer) and incubated at 25° C. for 35 min. A typical Helicase reaction consists of 25 nM forked dsDNA, 100 μM ATP, and 1 nM WRN prepared in assay buffer. The WRN Helicase reaction was quenched by the addition of 5 μL ‘STOP’ solution containing 100 mM EDTA (final EDTA concentration 33.33 mM) prepared in assay buffer. The plates were read on BMG PHERAstar FSX using 540/590 module to measure an increase of fluorescence. Data analysis was carried out using the Genedata software following % of control normalization. Fitting parameters include dose response IC50, Hill slope (n), maximum inhibition (S∞), and minimum inhibition (S0). The reported IC50 values for compounds in this invention are the geometric means of at least 2 independent replicates.

WRN [2] = target: T1, WRN; experiment: WRN ATPase activity assay (ADP-Glo); assay type: biochemical; details: 1-hr pre-incubation with enzyme; 100 μM ATP, 25 nM forked dsDNA, 1 nM WRN; geometric mean of at least 2 replicates
Procedure: Compounds of the Examples were tested for WRN ATPase activity. WRN ATPase activity catalyzes ATP hydrolysis to produce ADP and phosphate. DNA encoding the target protein, 6×HIS-TEV-WRN-517-945, was produced, cloned and transfected as detailed in Example D. The amount of ADP produced was measured using ADP-Glo™ Kinase Assay kit from Promega Corporation in a Greiner white regular volume 384 wells assay plate (Greiner #781075). Data was normalized to a standard curve generated using various ADP concentrations and the corresponding luminescent signal intensities at each concentration. The assay conditions were optimized for enzyme concentration (WRN), substrate concentrations (ATP & dsDNA), and the linearity of the ATPase reaction, in the following assay buffer: 50 mM Tris-HCl, pH-7.5, 2 mM MgCl2, 50 mM NaCl, 1 mM EGTA, 0.01% P-20, 0.05% BSA, and 2 mM DTT prepared with nuclease free water.
A serial dilution (1:3 scheme) of the compounds were prepared in neat DMSO, with 100 nL of the compounds dispensed in the 384 wells assay plate. An 1-hr pre-incubation of the compounds with enzyme was included. A His-tagged construct of WRN (AA S2-S1235) was produced and used for the ATPase assay. Maximum inhibition control wells were set up with the addition of only assay buffer, and no inhibition control wells were set up with neat DMSO without test compounds. The reaction was initiated by addition of 5 μL substrate mix (200 μM ultrapure ATP, and 50 nM dsDNA prepared in assay buffer) and incubated at 25° C. for 35 min. A forked dsDNA oligomer substrate was prepared by annealing equal amounts of oligo GPat-1 ([BHQ2][…]) and oligo GPat-2 ([…][TAM]) and was used as dsDNA substrate for WRN ATPase assay. A typical ATPase reaction consists of 25 nM forked dsDNA, 100 μM ATP, and 1 nM WRN prepared in assay buffer. The WRN ATPase reaction was stopped by the addition of 5 μL of ADP-Glo Reagent from ADP-Glo™ Kinase Assay kit and incubated for 40 min to deplete the unreacted ATP. Afterwards, 5 μL of Kinase Detection Reagent from the ADP-Glo™ Kinase Assay kit was added and incubated for 1 hr for the development of luminescence signal.
Luminesce signals were measured on BMG PHERAstar FSX using luminescence protocol. Data analysis was carried out using Genedata software following % of control normalization. Fitting parameters include dose response IC50, Hill slope (n), maximum inhibition (S∞), and minimum inhibition (S0). The reported IC50 values for compounds in this invention are the geometric means of at least 2 independent replicates.

| Structure (SMILES) | IC50 (WRN [1]) [nM] | IC50 (WRN [2]) [nM] |
| --- | --- | --- |
| C=CC(=O)Nc1cc(C(=O)NC2CCOCC2)ccc1-c1c(CC)nc2n(CC(=O)Nc3ccc(C(F)(F)F)cc3)c(C)c(C)n2c1=O [Example 32, 3-Acrylamido-4-(7-ethyl-2,3-dimethyl-5-oxo-1-(2-oxo-2-((4-(trifluoromethyl)phenyl)amino)ethyl)-1,5-dihydroimidazo[1,2-a]pyrimidin-6-yl)-N-(tetrahydro-2H-pyran-4-yl)benzamide] | < 100 | < 100 |
| C=CC(=O)Nc1cc(C(=O)N[C@H]2CCCOC2)ccc1-c1c(CC)nc2n(CC(=O)Nc3ccc(C(F)(F)F)cc3)c(C)c(C)n2c1=O [Example 33, (S)-3-Acrylamido-4-(7-ethyl-2,3-dimethyl-5-oxo-1-(2-oxo-2-((4-(trifluoromethyl)phenyl)amino)ethyl)-1,5-dihydroimidazo[1,2-a]pyrimidin-6-yl)-N-(tetrahydro-2H-pyran-3-yl)benzamide] | < 100 | < 100 |
| C=CC(=O)Nc1cc(C(=O)NC2(CO)CC2)ccc1-c1c(CC)nc2n(CC(=O)Nc3ccc(C(F)(F)F)cc3)c(C)c(C)n2c1=O [Example 34, 3-Acrylamido-4-(7-ethyl-2,3-dimethyl-5-oxo-1-(2-oxo-2-((4-(trifluoromethyl)phenyl)amino)ethyl)-1,5-dihydroimidazo[1,2-a]pyrimidin-6-yl)-N-(1-(hydroxymethyl)cyclopropyl)benzamide] | < 100 | < 100 |
| C=CC(=O)Nc1cc(C(=O)N2CCOCC2)ccc1-c1c(CC)nc2n(CC(=O)Nc3ccc(C(F)(F)F)cc3)c(C)c(C)n2c1=O [Example 35, N-(2-(7-Ethyl-2,3-dimethyl-5-oxo-1-(2-oxo-2-((4-(trifluoromethyl)phenyl)amino)ethyl)-1,5-dihydroimidazo[1,2-a]pyrimidin-6-yl)-5-(morpholine-4-carbonyl)phenyl)acrylamide] | < 100 | < 100 |
| C=CC(=O)Nc1ccccc1-c1cn(CC(=O)Nc2ccc(C(F)(F)F)cc2)c2nc(CC)c(N3CCN(C(=O)c4ncccc4O)CC3)c(=O)n12 [Example 36, N-(2-(7-Ethyl-6-(4-(3-hydroxypicolinoyl)piperazin-1-yl)-5-oxo-1-(2-oxo-2-((4-(trifluoromethyl)phenyl)amino)ethyl)-1,5-dihydroimidazo[1,2-a]pyrimidin-3-yl)phenyl)acrylamide] | < 100 | < 100 |
| C=CC(=O)Nc1ccccc1-c1c(C)n(CC(=O)Nc2ccc(F)cc2)c2nc(CC)c(-c3ccccc3)c(=O)n12 [Example 37, N-(2-(7-Ethyl-1-(2-((4-fluorophenyl)amino)-2-oxoethyl)-2-methyl-5-oxo-6-phenyl-1,5-dihydroimidazo[1,2-a]pyrimidin-3-yl)phenyl)acrylamide] | < 100 | < 100 |
| C=CS(=O)(=O)Nc1ccccc1-c1c(C)n(CC(=O)Nc2ccc(F)cc2)c2nc(CC)c(-c3ccccc3)c(=O)n12 [Example 38, 2-(7-Ethyl-2-methyl-5-oxo-6-phenyl-3-(2-(vinylsulfonamido)phenyl)imidazo[1,2-a]pyrimidin-1(5H)-yl)-N-(4-fluorophenyl)acetamide] | < 100 | < 100 |
| C=CC(=O)Nc1ccccc1-c1c(C)n(CC(=O)Nc2ccc(C(F)(F)F)cc2)c2nc(CC)c(C)c(=O)n12 [Example 39, N-(2-(7-Ethyl-2,6-dimethyl-5-oxo-1-(2-oxo-2-((4-(trifluoromethyl)phenyl)amino)ethyl)-1,5-dihydroimidazo[1,2-a]pyrimidin-3-yl)phenyl)acrylamide] | 100 to 500 | 100 to 500 |
| C=CC(=O)Nc1ccccc1-c1c(C)n(CC(=O)Nc2ccc(C(F)(F)F)cc2)c2nc(CC)c(-c3ccc(C(=O)NCC)cc3)c(=O)n12 [Example 40, 4-(3-(2-Acrylamidophenyl)-7-ethyl-2-methyl-5-oxo-1-(2-oxo-2-((4-(trifluoromethyl)phenyl)amino)ethyl)-1,5-dihydroimidazo[1,2-a]pyrimidin-6-yl)-N-ethylbenzamide, trifluoroacetate salt] | < 100 | < 100 |
| C=CC(=O)Nc1ccccc1-c1c(C)n(CC(=O)Nc2ccc(C(F)(F)F)cc2)c2nc(CC)c(-c3ccc(C(=O)NC)nc3)c(=O)n12 [Example 41, 5-(3-(2-Acrylamidophenyl)-7-ethyl-2-methyl-5-oxo-1-(2-oxo-2-((4-(trifluoromethyl)phenyl)amino)ethyl)-1,5-dihydroimidazo[1,2-a]pyrimidin-6-yl)-N-methylpicolinamide, trifluoroacetate salt] | < 100 | < 100 |
| C=CC(=O)Nc1c(Cl)cccc1-c1c(CC)nc2n(CC(=O)Nc3ccc(F)cc3)c(C)c(C)n2c1=O [Example 42, N-(2-chloro-6-(7-ethyl-1-(2-((4-fluorophenyl)amino)-2-oxoethyl)-2,3-dimethyl-5-oxo-1,5-dihydroimidazo[1,2-a]pyrimidin-6-yl)phenyl)acrylamide] | < 100 | < 100 |
| C=CC(=O)Nc1c(Cl)cccc1-c1c(CC)nc2n(CC(=O)Nc3ccc(Cl)cc3)c(C)cn2c1=O [Example 43, N-(2-chloro-6-(1-(2-((4-chlorophenyl)amino)-2-oxoethyl)-7-ethyl-2-methyl-5-oxo-1,5-dihydroimidazo[1,2-a]pyrimidin-6-yl)phenyl)acrylamide] | < 100 | < 100 |
| C=CC(=O)Nc1c(Cl)cccc1-c1c(CC)nc2n(CC(=O)Nc3ccc(Cl)cc3Cl)c(C)cn2c1=O [Example 44, N-(2-chloro-6-(1-(2-((2,4-dichlorophenyl)amino)-2-oxoethyl)-7-ethyl-2-methyl-5-oxo-1,5-dihydroimidazo[1,2-a]pyrimidin-6-yl)phenyl)acrylamide] | < 100 | < 100 |
